Patent US20230381328A1, “COMPOUND FOR THE PREVENTION OR TREATMENT OF MYASTHENIA GRAVIS” (ABLEVIA BIOTECH GMBH, priority 2020, published 2023)

Test system: myasthenogenic antibody mAB 198
Test: Peptide microarray mimotope screen, binding of mAB 198 to linear and cyclic peptides (fluorescence readout)
Design: species or system rat
Settings: cyclic mimotopes; binding of mAB 198, relative fluorescent signal after normalization against background
Text: A custom peptide array of 30000 peptides was synthesized, with peptides of 7-19 amino acids in size; the peptides were based on substitution analyses of 176 AChR-MIR peptides with exchanges of each amino acid positions by each of the 20 common amino acids. Peptides were synthesized directly on a microarray, and screened with monoclonal antibody mAB 198 in order to obtain mimotopes with a binding strength which was improved over the human AChR alpha chain MIR-containing sequence […] (Tzartos et al, 1991; Luo et al, 2009) and over a previously published mimotope sequence ([…]), that was derived from Torpedo AchR with the help of antibody mAB 132A (Trinh et al, 2014). In particular, the wild type AChR-MIR sequence is known to structurally mimic to a certain extent the epitope recognized by myasthenogenic, unwanted and disease-causing antibodies from patients. The mimotope peptide library was designed by permutation of each single amino acid position of these two sequences with all natural amino acids in order to provide a maximally diversified collection of peptide variants. All peptides were synthesized in doublets as linear and as cyclic peptides. The aim was to obtain peptides (mimotopes) that mimic the natural epitope of myasthenogenic antibodies.
For the mimotope screen, the antibody mAB 198 (Absolute Antibody Ltd, UK) was used. This is a prototype antibody that was generated in rats using human AChR (Tzartos et al, 1983; Asher et al, 1993). […] Therefore, mAB198 was used as a surrogate probe to screen for new mimotopes that are capable of mimicking the corresponding AChR-MIR epitope or portions of the epitope.
As a readout, binding of mAB 198 to the 30000 linear and cyclic peptides was measured by fluorescence readout, and peptides were ranked according to their relative fluorescent signal after normalization against the background.
The top-ranked 100 linear and cyclic mimotopes are listed in Table 1 and Table 2 above, respectively.

| Substance | relative signal [%] |
| --- | --- |
| 197 (NPADYGN) [compound 197] | 8.7 |
| 159 (NPADYGY) [compound 159] | 11.8 |
| 165 (QLRWNPADY) [compound 165] | 10.7 |
| 108 (RLRGNPADY) [compound 108] | 32.7 |
| 166 (RLRQNPADY) [compound 166] | 10.6 |
| 133 (WNPADYP) [compound 133] | 21.1 |
| 152 (GGGSLRRNPAD) [compound 152] | 12.5 |
| 185 (RLRWNPADYGS) [compound 185] | 9.7 |
| 134 (RYNPADY) [compound 134] | 20.2 |
| 139 (NPADYGH) [compound 139] | 15.8 |
| 193 (LRWNPADYPGI) [compound 193] | 8.9 |
| 142 (VRLRRNPAD) [compound 142] | 14.7 |
| 117 (SLRVNPADY) [compound 117] | 26.5 |
| 170 (GSLRFNPADYG) [compound 170] | 10.4 |
| 180 (TLRWNPADY) [compound 180] | 9.9 |
| 144 (GGSLRFNPADY) [compound 144] | 14.5 |
| 115 (DVRLRFNPADY) [compound 115] | 27.7 |
| 198 (LRFNPAD) [compound 198] | 8.6 |
| 163 (RWNPADR) [compound 163] | 11.0 |

| Substance | relative signal [%] |
| --- | --- |
| 151 (VNPADYG) [compound 151] | 12.5 |
| 146 (GNPADYGGI) [compound 146] | 13.7 |
| 187 (VRLRLNPADYG) [compound 187] | 9.7 |
| 119 (GGSLRINPADY) [compound 119] | 25.4 |
| 173 (LRWNPADYGGF) [compound 173] | 10.3 |
| 194 (DVRLRQNPADY) [compound 194] | 8.8 |
| 111 (RINPADY) [compound 111] | 28.9 |
| 199 (RLRTNPADY) [compound 199] | 8.6 |
| 191 (RLRGNPADYGG) [compound 191] | 9.0 |
| 116 (NPADYRG) [compound 116] | 27.4 |
| 176 (RLRWNPADYGP) [compound 176] | 10.0 |
| 174 (GSLRWNPADYD) [compound 174] | 10.2 |
| 172 (LRWNPADYR) [compound 172] | 10.3 |
| 190 (RWNPADF) [compound 190] | 9.1 |
| 112 (LRLNPADYG) [compound 112] | 28.6 |
| 177 (GSLRWNPADYN) [compound 177] | 10.0 |
| 179 (LRPNPADYG) [compound 179] | 10.0 |
| 164 (RLHWNPADY) [compound 164] | 10.8 |
| 107 (RLRLNPADY) [compound 107] | 37.3 |

| Substance | relative signal [%] |
| --- | --- |
| 153 (RPRWNPADY) [compound 153] | 12.4 |
| 171 (GGSLRWNPADR) [compound 171] | 10.3 |
| 124 (RRNPADY) [compound 124] | 23.5 |
| 161 (GGSLRYNPADY) [compound 161] | 11.5 |
| 123 (RGNPADY) [compound 123] | 23.8 |
| 106 (RFNPADY) [compound 106] | 37.5 |
| 138 (GSLRWNPADYR) [compound 138] | 16.2 |
| 131 (DVRLRPNPADY) [compound 131] | 21.3 |
| 132 (RLRFNPADY) [compound 132] | 21.3 |
| 200 (GGSLRLNPADY) [compound 200] | 8.5 |
| 156 (RANPADY) [compound 156] | 12.2 |
| 114 (SLRINPADY) [compound 114] | 28.0 |
| 110 (DVRLRVNPADY) [compound 110] | 30.2 |
| 141 (SLRGNPADY) [compound 141] | 15.4 |
| 160 (ALRWNPADY) [compound 160] | 11.5 |
| 158 (RPNPADYGG) [compound 158] | 11.9 |
| 183 (RLRPNPADY) [compound 183] | 9.8 |
| 125 (LRRNPADYG) [compound 125] | 23.4 |

Same assay, conditions: linear mimotopes; binding of mAB 198, relative fluorescent signal after normalization against background

| Substance | relative signal [%] |
| --- | --- |
| 38 (RGNPADYGG) [compound 38] | 13.0 |
| 36 (SLHWNPADY) [compound 36] | 13.6 |
| 45 (NPADYGR) [compound 45] | 12.2 |
| 33 (NPADYGD) [compound 33] | 14.1 |
| 62 (GSLRFNPAD) [compound 62] | 9.3 |
| 64 (WRLRWNPAD) [compound 64] | 9.0 |
| 59 (GSLRRNPAD) [compound 59] | 9.5 |
| 34 (WNPADYGHI) [compound 34] | 13.7 |
| 98 (VDCNLKYNP) [compound 98] | 6.1 |
| 27 (RYNPADY) [compound 27] | 16.5 |
| 67 (WNPDDYGHV) [compound 67] | 8.8 |
| 76 (VPLRWNPAD) [compound 76] | 7.6 |
| 75 (NPDDYGH) [compound 75] | 7.7 |
| 87 (RIRWNPADY) [compound 87] | 6.8 |
| 22 (NPADYPG) [compound 22] | 19.8 |
| 20 (RLHWNPADY) [compound 20] | 20.2 |
| 40 (LRINPADYG) [compound 40] | 12.6 |
| 52 (GGGSLRRNPAD) [compound 52] | 10.6 |
| 6 (WNPADYR) [compound 6] | 40.6 |
| 85 (VDCNLKFNP) [compound 85] | 6.8 |

| Substance | relative signal [%] |
| --- | --- |
| 96 (QWVDCNLKFNP) [compound 96] | 6.4 |
| 15 (RFNPADY) [compound 15] | 21.8 |
| 42 (RLRWNPADYHG) [compound 42] | 12.4 |
| 55 (NPADYDG) [compound 55] | 10.3 |
| 12 (VRLRYNP) [compound 12] | 26.3 |
| 24 (RLNPADY) [compound 24] | 17.7 |
| 66 (RHNPADY) [compound 66] | 8.9 |
| 50 (RLYWNPADY) [compound 50] | 11.0 |
| 81 (LRWNPADYHGI) [compound 81] | 7.2 |
| 80 (RTNPADY) [compound 80] | 7.2 |
| 93 (LRWNPADYPGI) [compound 93] | 6.5 |
| 56 (DVRLRFNPADY) [compound 56] | 10.0 |
| 100 (NPADYGV) [compound 100] | 6.0 |
| 69 (DVRLRINPADY) [compound 69] | 8.5 |
| 84 (RGNPADY) [compound 84] | 6.9 |
| 53 (LRWNPADYGGF) [compound 53] | 10.6 |
| 71 (GGGSLRFNPAD) [compound 71] | 8.1 |
| 25 (LRLNPADYG) [compound 25] | 17.3 |
| 77 (YNLPWNP) [compound 77] | 7.6 |
| 65 (GNPADYGGI) [compound 65] | 8.9 |

| Substance | relative signal [%] |
| --- | --- |
| 18 (NPADYGY) [compound 18] | 21.2 |
| 29 (LHWNPAD) [compound 29] | 15.7 |
| 82 (GGGSLRYNP) [compound 82] | 7.1 |
| 57 (RRNPADY) [compound 57] | 9.9 |
| 16 (GSLRFNP) [compound 16] | 21.6 |
| 88 (HRLRWNPAD) [compound 88] | 6.7 |
| 61 (RWNPADYGH) [compound 61] | 9.4 |
| 94 (RLRYNPADY) [compound 94] | 6.5 |
| 95 (SLRFNPADY) [compound 95] | 6.5 |
| 49 (SLRINPADY) [compound 49] | 11.0 |
| 47 (WNPDDYR) [compound 47] | 11.4 |
| 89 (SLRVNPADY) [compound 89] | 6.7 |
| 70 (YNLKYNP) [compound 70] | 8.3 |
| 31 (IDVRLRFNP) [compound 31] | 15.0 |
| 3 (NPADYHG) [compound 3] | 59.3 |
| 74 (IDVRLRFNPAD) [compound 74] | 7.9 |
| 35 (YNLKFNP) [compound 35] | 13.7 |
| 28 (LRYNPAD) [compound 28] | 15.9 |
| 14 (VRLRRNPAD) [compound 14] | 25.0 |
